Results published in patent US5994398A, “Arylsulfonamides as phospholipase A2 inhibitors” (Elan Pharmaceuticals, Inc., priority 1996, dated 1999).

Tests used:
cPLA2 = conditions: Street et al. (1993); cited from earlier work
Ca^+2 -independent PLA2 = conditions: Ackermann et al. (1995); cited from earlier work
[1] = tested on: Alzheimer's Disease patients; conditions: selected group of five AD patients; cited from earlier work
[2] = tested on: IL-1β and TNF-α release in cultured microglial cells; test: Aβ1-40-induced cytokine (IL-1β and TNF-α) release in microglia, ELISA; type: cell-based, human; conditions: 50 μM Aβ1-40, cultured microglia, vs vehicle control
Description: Cultures of human cortical astrocytes and microglia were prepared using a modification of the procedure described for cortical neurons. Cortical tissue from fetuses of 16 to 20 weeks of gestation was washed 3 times in Ca^2+ /Mg^2+ free Hanks balanced salt solution (CMF HBSS) and then dissociated by repeated pipetting. The solution was brought to a final volume of 80 mL CMF HBSS for approximately 10 mL of tissue. DNase (Sigma) was added to a final concentration of 0.05 mg/mL. 20 mL of the solution was passed through one 100 μm nylon cell strained (Falcon). The cells were then centrifuged for 5 minutes at 200×G in an IEC Clinical Centrifuge and resuspended in a trypsin/EDTA solution (0.05% trypsin+0.53 mM EDTA in HBSS; Gibco) and incubated for 20 minutes at 37° C. (10 mL of trypsin was added per 2-3 mL of tissue). The trypsin was then inactivated by adding (MEM/FBS): Modified Eagle's Medium (MEM) containing 1% glucose, 1 mM sodium pyruvate, 1 mM glutamine, and supplemented with 10% fetal bovine serum (JRH). After adding a final concentration of 0.05 mg/mL DNase the cells were resuspended and then pelleted by centrifugation and resuspended in MEM/FBS. […]
Cultured microglial cells were treated with 50 μM of Aβ1-40 or vehicle only (Control). The levels of IL-1β and TNF-α released into the culture medium were determined by ELISA assay (R&D Systems) according to manufacturer's instructions. […]

Molecule | inhibition of cPLA2 (cPLA2) | inhibition of Ca+2-independent PLA2 activity (Ca^+2 -independent PLA2) | effects on neuropathological progression [1] | symptomatic progression of AD [1] | stimulation of release of IL-1β and TNF-α into culture medium [2]
CCCCCCCCCCCCCCCC(=O)C(F)(F)F [palmitoyl trifluoromethyl ketone] | capable of inhibiting | capable of inhibiting |  |  | 
COc1ccc2c(c1)c(CC(=O)O)c(C)n2C(=O)c1ccc(Cl)cc1 [indomethacin] |  |  | no effects on neuropathological progression were noted | allegedly useful in reducing symptomatic progression | 
O=C1O/C(=C/Br)CCC1c1cccc2ccccc12 (stereo not drawn) [Bromoenol lactone] | capable of inhibiting | capable of inhibiting |  |  | 
Aβ1-40: Amyloid-β (Aβ) peptide 1-40, stock solutions 1 mM in sterile ddH2O |  |  |  |  | found to stimulate the release of IL-1β and TNF-α
CCCCC/C=C\C/C=C\C/C=C\C/C=C\CCCC(=O)C(F)(F)F [arachidonyl trifluoromethyl ketone] | capable of inhibiting | capable of inhibiting |  |  | 
